Source: patent US12054510B2, “2′ and/or 5′ amino-acid ester phosphoramidate 3′-deoxy adenosine derivatives as anti-cancer compounds” (Nucana plc, priority 2014, dated 2024)

Legend:
RL (CRL-2261) = assay: ATP ViaLight plus cell viability assay; type: cell-based
Experimental: (§1) Certain compounds of the invention were subjected to further studies to test the cytotoxic activity of certain compounds of the invention and also to measure their activity against 4 haematological cancer cell lines • TdT positive CEM (Human ALL) • TdT negative K562 (Human CML) • TdT negative H1-60 (Human ANLL) • RL (CRL-2261) non-HD lymphoma • The concentrations of the active metabolite dATP (Cordycepin triphosphate) in these cell lines was also measured. • The cytotoxic activity and the intracellular 3′-dATP concentrations were also studied in the presence of hENT1, Adenosine Kinase (AK) and Adenosine Deaminase pharmacological inhibitors in CEM and RL cancer cell lines. Said inhibitors that mimic known cancer resistance mechanisms. Methods Cell Culture
(§2) HL-60, K562, CCRF-CEM and RL cell lines were cultured in RPMI-1640 medium (Sigma Aldrich, UK), which were supplemented with 10% Fetal Bovine Serum (FBS) (PAA Laboratories), 1% amphotericin B (5.5 ml) and 1% penicillin/streptomycin (5.5 ml) (PAA Laboratories) and grown in flasks at 37° C. incubator with 5% CO2.
(§3) The amount of ATP was used as a measurement of cell number and cell viability. ATP ViaLight™ plus assay kit (Lonza, USA: Product No. LT07-121) to detect ATP in cells treated in luminescence compatible 96 well plates (initial concentration of cells was 1×10^4 cells/well) with cordycepin and ProTides at concentrations of: 0, 0.1, 0.5, 1, 5 and 10 μM, followed by incubation for 72 hours at 37° C. incubator with 5% CO2. For inhibitor studies, 10 μM of NBTI or 1 μM EHNA or A-134974 was added and left for 5 minutes before adding the drugs (see section 5 for inhibitor details).
(§4) After incubation, 50 μl of cell lysis reagent was added to the 96 well plates to release the intracellular ATP, followed by 100 μl of ATP monitoring reagent (AMR). The luminescent values of each well were determined using FLUOstar OPTIMA microplate reader (BMG Labtech) which convert ATP into light by using luciferase enzyme. Therefore, the amount of luminescence produced was directly proportional to the amount of ATP.
(§5) Cell lines were treated in the same way as described above but before treatment with drugs, a number of inhibitors were added: • 1) Nitrobenzylthioinosine (NBTI) (Sigma-Aldrich, St. Louis, MO, product # N2255) blocks nucleoside transporters • 2) EHNA hydrochloride (Sigma-Aldrich, St. Louis, MO, product # E114) blocks adenosine deaminase • 3) Adenosine kinase inhibitor A-134974 dihydrochloride hydrate (Sigma-Aldrich, St. Louis, MO, product # A2846): blocks adenosine kinase
(§6) The dose-response curves of cytotoxicity of the drugs was determined using non-linear regression analysis of percentage cell viability versus concentration and EC50 values were obtained. The intracellular assay was conducted in five replicates for each condition. Intracellular assay was determined using paired t test (two-tailed) analysis of 3′ ATP/ATP concentration and p-values were obtained. For all the analysis, Prism Software program (GraphPad Software) was used and Microsoft Powerpoint® 2013 was used to plot the results.

HepG2 = assay: Solid tumour and haematological malignancy assay (CellTiterGlo); type: cell-based; conditions: Homo sapiens, HepG2, 72 h; for Emax: read-out: MI %
Experimental: (§7) In vitro viability assay were performed to assess the effects of compounds on cell viability in selected cell lines over 72 hr using the CellTiterGlo (CTG, Promega-G7573) assay. […] Cell viability assay using CellTiterGlo in 96-well plate were performed. Compound treatment 72 hrs, standard growth conditions, duplicates. Compounds were dissolved to 40 mM with thawed 100%. […] After compounds were dissolved in media, media containing compounds were warmed to 37° C. in incubator and then compounds in media were added to cell plates (50 μl+50 μl) in duplicates. […] All compound solubilities were checked and recorded again, then the plates were transferred to CO2 tissue culture incubator immediately and incubated for 3 days. DMSO final concentration is 0.5%.

HEL92.1.7 = assay: as above; type: cell-based; conditions: Homo sapiens, HEL 92.1.7, 72 h, read-out: MI %
Experimental: as §7

HT29 = assay: as above; type: cell-based; conditions: Homo sapiens, HT-29, 72 h; for IC50: read-out: IC50 (absolute IC50); for Emax: read-out: MI %
Experimental: as §7

KG-1 = assay: as above; type: cell-based; conditions: Homo sapiens, KG-1, 72 h; for IC50: read-out: IC50 (absolute IC50); for Emax: read-out: MI %
Experimental: as §7

MCF7 = assay: as above; type: cell-based; conditions: Homo sapiens, MCF7, 72 h; for IC50: read-out: IC50 (absolute IC50); for Emax: read-out: MI %
Experimental: as §7

MiaPaCa-2 = assay: as above; type: cell-based; conditions: Homo sapiens, MIA PaCa-2, 72 h, read-out: MI %
Experimental: as §7

HL-60 = assay: as above; type: cell-based; conditions: Homo sapiens, HL-60, 72 h, read-out: MI %
Experimental: as §7

K562 = assay: as above; type: cell-based; conditions: Homo sapiens, K562, 72 h; for IC50: read-out: IC50 (absolute IC50); for Emax: read-out: MI %
Experimental: as §7

RPMI-8226 = assay: as above; type: cell-based, Human; conditions: for MI %: RPMI-8226, 72 hr
Experimental: (§8) In vitro viability assay were performed to assess the effects of compounds on cell viability in selected cell lines over 72 hr using the CellTiterGlo (CTG, Promega-G7573) assay. The tests were performed in duplicates with treatment of compounds at 9 points, 3.16 folds titration in 96 well plates over ˜72 hr. The compound starting concentrations were […]. Cell viability assay using CellTiterGlo in 96-well plate were performed. Compound treatment 72 hrs, standard growth conditions, duplicates. Compounds were dissolved to 40 mM with thawed […]. Compounds were serially diluted at 3.16 fold in thawed DMSO, and warmed to 37° C. before being dissolved in media (2 μl+200 μl). After compounds were dissolved in media, media containing compounds were warmed to 37° C. in incubator and then compounds in media were added to cell plates (50 μl+50 μl) in duplicates. The compounds' final concentrations were from 198M to 19.9 nM. All compound solubilities were checked and recorded again, then the plates were transferred to CO2 tissue culture incubator immediately and incubated for 3 days. DMSO final concentration is 0.5%.

THP-1 = assay: as above; type: cell-based; conditions: 72 hr
Experimental: as §8

CEM (TdT+ve) = assay: ATP ViaLight plus cell viability assay; type: cell-based, Human; conditions: for (FD) fold difference compared to control: CEM
Experimental: as §1, §2, §3, §4, §5, §6

Z138 = assay: Solid tumour and haematological malignancy assay (CellTiterGlo); type: cell-based; conditions: 72 hr
Experimental: as §8

Row | Compound | (FD) fold difference compared to Cordycepin = Cordycepin IC50/ProTide IC50 (RL (CRL-2261)) | (FD) fold difference compared to control (RL (CRL-2261); AK) | (FD) fold difference compared to control (RL (CRL-2261); EHNA) | (FD) fold difference compared to control (RL (CRL-2261); NBTI) | Emax (HepG2) | Emax (HEL92.1.7) | IC50 (HT29) | Emax (HT29) | IC50 (KG-1) | Emax (KG-1) | IC50 (MCF7) | Emax (MCF7) | Emax (MiaPaCa-2) | Emax (HL-60) | IC50 (K562) | Emax (K562) | MI % (RPMI-8226) | MI % (THP-1) | (FD) fold difference compared to Cordycepin = Cordycepin IC50/ProTide IC50 (CEM (TdT+ve); CEM (TdT+ve)) | (FD) fold difference compared to control (CEM (TdT+ve); AK) | further results
1 | C[C@H](NP(=O)(OC[C@@H]1C[C@@H](O)[C@H](n2cnc3c(N)ncnc32)O1)Oc1cccc2ccccc12)C(=O)OCc1ccccc1 (stereo partly drawn) [B, (2S)-benzyl 2-(((((2S,4R,5R)-5-(6-amino-9H-purin-9-yl)-4-hydroxytetrahydrofuran-2-yl)methoxy)(naphthalen-1-yloxy)phosphoryl)amino)propanoate] | 61 | 1 | 2 | 1 | 98% | 98% | 5 to 15 µM | 98% | 5 to 15 µM | 97% | 0.1 to 5 µM | 96% | 98% | 99% | 0.1 to 5 µM | 99% | 102% | 99% | 150 | 1 | (FD) fold difference compared to control (CEM (TdT+ve); EHNA): 1; (FD) fold difference compared to control (CEM (TdT+ve); NBTI): 1
2 | COC(=O)C(C)(C)NP(=O)(OC[C@@H]1C[C@@H](O)[C@H](n2cnc3c(N)ncnc32)O1)Oc1cccc2ccccc12 (stereo partly drawn) [E, Methyl 2-(((((2S,4R,5R)-5-(6-amino-9H-purin-9-yl)-4-hydroxytetrahydrofuran-2-yl)-methoxy)(naphthalen-1-yloxy)phosphoryl)amino)-2-methylpropanoate] | 2 | 1 | 1 | 1 | 67% | 101% | 15 to 100 µM | 76% | 15 to 100 µM |  | 5 to 15 µM | 89% | 91% | 95% | 5 to 15 µM |  | 89% | 43% | 2 | 1 | IC50 (HepG2; read-out: IC50 (absolute IC50)): 15 to 100 µM; MI % (Z138): 93%; (FD) fold difference compared to control (CEM (TdT+ve); EHNA): 1; (FD) fold difference compared to control (CEM (TdT+ve); NBTI): 2
3 | CCOC(=O)CCc1ccccc1OP(=O)(N[C@@H](C)C(=O)OCc1ccccc1)OC[C@@H]1C[C@@H](O)[C@H](n2cnc3c(N)ncnc32)O1 (stereo partly drawn) [F, (2S)-benzyl 2-(((((2S,4R,5R)-5-(6-amino-9H-purin-9-yl)-4-hydroxytetrahydrofuran-2-yl)methoxy)(2-(3-ethoxy-3-oxopropyl)phenoxy)phosphoryl)amino)propanoate] | 7 |  |  |  | 79% | 99% | 15 to 100 µM | 89% | 15 to 100 µM | 95% | 5 to 15 µM | 103% | 101% | 96% |  | 93% | 106% |  | 5 |  | IC50 (RPMI-8226; Homo sapiens, RPMI-8226, 72 h, read-out: IC50 (absolute IC50)): 15 to 100 µM; MI % (Z138): 76%; IC50 (CEM (TdT+ve); Homo sapiens, 72 h, CEM (TdT+ve), 72 hours): 4.3 µM
